# Experimental data as given in patent EP1640359A2, “Anticonvulsant and central nervous system-active bis(fluorophenyl)alkylamides” (NPS PHARMACEUTICALS, INC., priority 1997, dated 1999).
# Test system: normal anesthetized rats
# Assay: Flexor reflex in normal anesthetized rats (spasticity model)
# Type: in vivo
# Conditions: in comparison to baclofen, Figure 3 legend only, no numbers given
# Excerpt: Baclofen, diazepam (Valium), and tizanidine are effective on different parameters of spasticity (EMG recordings, H-reflex, the H/M ratio, mono- and polysynaptic reflexes, clonus, hyperreflexia) in these models. The flexor reflex is a polysynaptic response elicited by stimulation of the bottom of the foot and models the withdrawal reflex.
compound,measurement,value
"NC(=O)CC(c1cccc(F)c1)c1cccc(F)c1 [Compound 1, 3,3-bis(3-fluorophenyl)propanamide]",reduction in the flexor reflex,reduction in the flexor reflex
